Laboratory results reported in US7951815B2, “Substituted 1,4,8-triazaspiro [4,5]decan-2-one compounds” (Gruenenthal GmbH, priority 2004, dated 2011).
Structures can show the parent of a compound that is named as a salt.

Target: T1, 5-HT transporter (Rattus norvegicus, UniProt P31652)
T1 construct: synaptosomes of rat brain areas are freshly isolated; from tissue; host or cells: rat brain synaptosomes (P2 fraction) from marrow and pons
Assay: Inhibition of 5-HT uptake in rat brain synaptosomes
Format: biochemical
Details: Table III; rat, 1 μM

T1 sequence (P31652 whole entry): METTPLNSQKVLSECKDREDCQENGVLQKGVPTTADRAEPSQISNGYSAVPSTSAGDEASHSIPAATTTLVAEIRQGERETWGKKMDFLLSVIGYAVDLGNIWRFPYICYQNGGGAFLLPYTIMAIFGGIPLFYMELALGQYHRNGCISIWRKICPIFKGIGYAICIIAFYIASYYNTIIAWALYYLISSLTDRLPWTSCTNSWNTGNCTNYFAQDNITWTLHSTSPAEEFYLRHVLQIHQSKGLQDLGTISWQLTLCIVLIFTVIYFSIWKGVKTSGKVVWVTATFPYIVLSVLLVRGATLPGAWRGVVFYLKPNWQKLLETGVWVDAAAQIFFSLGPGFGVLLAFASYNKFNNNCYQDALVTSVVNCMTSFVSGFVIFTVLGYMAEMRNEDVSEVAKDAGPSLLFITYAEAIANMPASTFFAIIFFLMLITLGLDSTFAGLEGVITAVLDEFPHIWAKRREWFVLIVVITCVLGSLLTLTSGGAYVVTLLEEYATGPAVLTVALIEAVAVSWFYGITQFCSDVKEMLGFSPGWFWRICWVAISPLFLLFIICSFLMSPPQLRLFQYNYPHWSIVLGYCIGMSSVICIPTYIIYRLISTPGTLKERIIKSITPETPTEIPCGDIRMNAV

| Uptake 5-HT, rat, 1 μM, % inhibition | SMILES |
| --- | --- |
| 50% | C=CCN1C(=O)C(CCSC)NC12CCN(C(=O)c1ccc(S(N)(=O)=O)cc1)CC2 (stereo not drawn) [Example 259, 4-[1-Allyl-3-(2-methylsulfanylethyl)-2-oxo-1,4,8-triazaspiro[4,5]decan-8-carbonyl]benzolsulfonamide] |

Same assay, conditions: read-out: Uptake 5-HT, % inhibition; Table II; rat, 1 μM

| SMILES | inhibition at 1 µM |
| --- | --- |
| CCC(CC)C(=O)N1CCC2(CC1)NC(CCSC)C(=O)N2Cc1ccccc1 (stereo not drawn) [Example 33, 1-benzyl-8-(2-ethylbutyryl)-3-(2-methylsulfanylethyl)-1,4,8-triazaspiro[4,5]decan-2-one hydrochloride] | 49% |

Same assay, conditions: read-out: Uptake 5-HT, % inhibition; Table III; rat, 1 μM

| inhibition at 1 µM | SMILES |
| --- | --- |
| 46% | CSCCC1NC2(CCN(C(=O)c3ccccn3)CC2)N(Cc2ccccc2F)C1=O (stereo not drawn) [Example 170, 1-(2-Fluorobenzyl)-3-(2-methylsulfanylethyl)-8-(pyridin-2-carbonyl)-1,4,8-triazaspiro[4,5]decan-2-one] |
| 39% | CCCCN1C(=O)C(CCSC)NC12CCN(C(=O)CCCOc1ccccc1)CC2 (stereo not drawn) [Example 161, 1-Butyl-3-(2-methylsulfanylethyl)-8-(4-phenoxybutyryl)-1,4,8-triazaspiro[4,5]decan-2-one] |
| 70% | CCOC(=O)CN1C(=O)C(Cc2ccccc2)NC12CCN(C(=O)C1CCC1)CC2 (stereo not drawn) [Example 319, Ethyl (3-benzyl-8-cyclobutanecarbonyl-2-oxo-1,4,8-triazaspiro[4,5]dec-1-yl)acetate] |
| 63% | CCCCN1C(=O)C(Cc2ccccc2)NC12CCN(C(=O)c1ccco1)CC2 (stereo not drawn) [Example 153, 3-Benzyl-1-butyl-8-(furan-2-carbonyl)-1,4,8-triazaspiro[4,5]decan-2-one] |
| 38% | COc1ccc(CC(=O)N2CCC3(CC2)NCC(=O)N3Cc2ccccc2F)cc1 [Example 320, 1-(2-Fluorobenzyl)-8-[2-(4-methoxyphenyl)acetyl]-1,4,8-triazaspiro[4,5]decan-2-one] |
| 74% | CCCCN1C(=O)C(Cc2ccccc2)NC12CCN(C(=O)c1cc(C(F)(F)F)ccc1C(F)(F)F)CC2 (stereo not drawn) [Example 155, 3-Benzyl-8-(2,5-bis-trifluoromethylbenzoyl)-1-butyl-1,4,8-triazaspiro[4,5]decan-2-one] |
| 32% | C#CCN1C(=O)C(Cc2ccccc2)NC12CCN(C(=O)c1ccco1)CC2 (stereo not drawn) [Example 186, 3-Benzyl-8-(furan-2-carbonyl)-1-prop-2-ynyl-1,4,8-triazaspiro[4,5]decan-2-one] |
| 36% | CCCCN1C(=O)C(CCSC)NC12CCN(C(=O)c1cc(OC)cc(OC)c1)CC2 (stereo not drawn) [Example 229, 1-Butyl-8-(3,5-dimethoxybenzoyl)-3-(2-methylsulfanylethyl)-1,4,8-triazaspiro[4,5]decan-2-one] |
| 43% | COc1cc(C(=O)N2CCC3(CC2)NCC(=O)N3Cc2cccc(C#N)c2)cc(OC)c1OC [Example 277, 3-[2-Oxo-8-(3,4,5-trimethoxybenzoyl)-1,4,8-triazaspiro[4,5]dec-1-ylmethyl]benzonitrile] |
| 51% | CCCCN1C(=O)C(CCSC)NC12CCN(C(=O)c1ccc(OC)cc1)CC2 (stereo not drawn) [Example 144, 1-Butyl-8-(4-methoxybenzoyl)-3-(2-methylsulfanylethyl)-1,4,8-triazaspiro[4,5]decan-2-one] |
| 30% | CCCCN1C(=O)C(CCSC)NC12CCN(C(=O)c1cc(C)oc1C)CC2 (stereo not drawn) [Example 219, 1-Butyl-8-(2,5-dimethylfuran-3-carbonyl)-3-(2-methylsulfanylethyl)-1,4,8-triazaspiro[4,5]decan-2-one] |
| 47% | CCOC(=O)CC(=O)N1CCC2(CC1)NCC(=O)N2CCOc1ccccc1 [Example 74, Ethyl 3-oxo-3-[2-oxo-1-(2-phenoxyethyl)-1,4,8-triazaspiro[4,5]dec-8-yl]propionate] |
| 59% | N#Cc1cccc(CN2C(=O)CNC23CCN(C(=O)c2ccccc2C(F)(F)F)CC3)c1 [Example 308, 3-[2-Oxo-8-(2-trifluoromethylbenzoyl)-1,4,8-triazaspiro[4,5]dec-1-ylmethyl]benzonitrile] |
| 45% | CSCCC1NC2(CCN(C(=O)c3ccco3)CC2)N(Cc2ccc(F)cc2)C1=O (stereo not drawn) [Example 147, 1-(4-Fluorobenzyl)-8-(furan-2-carbonyl)-3-(2-methylsulfanylethyl)-1,4,8-triazaspiro[4,5]decan-2-one] |
| 55% | CCCCN1C(=O)C(CCSC)NC12CCN(C(=O)C1CCCCC1)CC2 (stereo not drawn) [Example 206, 1-Butyl-8-cyclohexanecarbonyl-3-(2-methylsulfanylethyl)-1,4,8-triazaspiro[4,5]decan-2-one] |
| 45% | C#CCN1C(=O)C(CC(C)C)NC12CCN(C(=O)c1ccc(OC(F)(F)F)cc1)CC2 (stereo not drawn) [Example 234, 3-Isobutyl-1-prop-2-ynyl-8-(4-trifluoromethoxybenzoyl)-1,4,8-triazaspiro[4,5]decan-2-one] |
| 49% | Cc1nc(C(F)(F)F)ccc1C(=O)N1CCC2(CC1)NC(C(C)C)C(=O)N2Cc1ccccc1 (stereo not drawn) [Example 178, 1-Benzyl-3-isopropyl-8-(2-methyl-6-trifluoromethylpyridin-3-carbonyl)-1,4,8-triazaspiro[4,5]decan-2-one] |
| 31% | CSCCC1NC2(CCN(C(=O)c3c(F)ccc(C)c3F)CC2)N(C)C1=O (stereo not drawn) [Example 231, 8-(2,6-Difluoro-3-methylbenzoyl)-1-methyl-3-(2-methylsulfanylethyl)-1,4,8-triazaspiro[4,5]decan-2-one] |
| 60% | C#CCN1C(=O)C(CCSC)NC12CCN(C(=O)CCCOc1ccccc1)CC2 (stereo not drawn) [Example 222, 3-(2-Methylsulfanylethyl)-8-(4-phenoxybutyryl)-1-prop-2-ynyl-1,4,8-triazaspiro[4,5]decan-2-one] |
| 47% | COC(=O)c1ccc(CN2C(=O)CNC23CCN(C(=O)C2CCCCC2)CC3)cc1 [Example 286, Methyl 4-(8-cyclohexanecarbonyl-2-oxo-1,4,8-triazaspiro[4,5]dec-1-ylmethyl)benzoate] |

Test system: batrachotoxin (BTX) binding site of the sodium channel
Assay: Affinity to the batrachotoxin (BTX) binding site of the sodium channel
Details: Table III; rat cerebrocortex synaptosomes; test concentration not given

| SMILES | BTX inhibition |
| --- | --- |
| CSCCC1NC2(CCN(C(=O)c3cccc(C)c3C)CC2)N(C)C1=O (stereo not drawn) [Example 166, 8-(2,3-Dimethylbenzoyl)-1-methyl-3-(2-methylsulfanylethyl)-1,4,8-triazaspiro[4,5]decan-2-one] | 47 |
| CSCCC1NC2(CCN(C(=O)C=Cc3cccc(C(F)(F)F)c3)CC2)N(C)C1=O (stereo not drawn) [Example 208, 1-Methyl-3-(2-methylsulfanylethyl)-8-[3-(3-trifluoromethylphenyl)acryloyl]-1,4,8-triazaspiro[4,5]decan-2-one] | 33 |
| O=C(c1ccnc(Cl)c1)N1CCC2(CC1)NCC(=O)N2Cc1ccccc1F [Example 300, 8-(2-Chloropyridin-4-carbonyl)-1-(2-fluorobenzyl)-1,4,8-triazaspiro[4,5]decan-2-one] | 33 |
| COC(=O)c1ccc(CN2C(=O)C(C(C)C)NC23CCN(C(=O)CC(C)(C)C)CC3)cc1 (stereo not drawn) [Example 198, Methyl 4-[8-(3,3-dimethylbutyryl)-3-isopropyl-2-oxo-1,4,8-triazaspiro[4,5]dec-1-ylmethyl]benzoate] | 30 |
| COc1ccc(CC(=O)N2CCC3(CC2)NC(CCSC)C(=O)N3Cc2ccc(F)cc2)cc1 (stereo not drawn) [Example 215, 1-(4-Fluorobenzyl)-8-[2-(4-methoxyphenyl)acetyl]-3-(2-methylsulfanylethyl)-1,4,8-triazaspiro[4,5]decan-2-one] | 32 |
